Experimental data published in patent US4242358A, “Method of treatment of algiae” (Societe de Recherches Industrielles (Sori), priority 1979, dated 1980).

What was measured:
[1] = LD-50 mice i.p. (acute toxicity); details: mouse, in vivo, ip
[2] = test system: cramping induced by phenylbenzoquinone; assay: antalgic activity: percentage inhibition of cramping induced by phenylbenzoquinone, mice i.p.; assay type: in vivo; details: dose one tenth of LD-50 mice i.p., over 5 minutes, phenylbenzoquinone 0.02% i.p.
Description: The antalgic activity of the compounds of formula I was determined by measuring the cramping induced by phenylbenzoquinone, as described by Siegmund et al, Proc. Soc. Exp. Biol. Med. ([…]) 95, 729. A painful reaction, characterized by twisting movements and elongation of the abdomen, with scraping of the rear paws, was introduced by the intraperitoneal administration of a 0.02% w/v solution of phenyl-benzoquinone in […] at a rate of 0.5 ml/20 g body weight. The activity was measured by the percentage inhibition in the number of painful symptons over 5 minutes.

[3] = test system: antalgic activity; assay: ED50 mice per os antalgic activity; assay type: in vivo; details: Mus musculus, po
[4] = kidney troubles / tolerance; assay type: in vivo; details: footnote (a), in connection with ED50 mice per os
[5] = clinical double blind test as an antalgic agent; assay type: in vivo; details: 41 patients, 400 mg per day, tablets, 20 days
Description: The compound of Example 1 has been tested clinically as an antalgic agent on 41 patients. A double blind test was carried out, using placebos and a dose of 400 mg per day of the active compound, administered as tablets.

[6] = LD50 mice per os (acute toxicity); details: mouse, in vivo, po
[7] = LD0 rat (acute toxicity); assay type: in vivo

| Structure (SMILES) | LD50 [1] | Percentage of diminution of cramping, Tested compound [2] | also measured |
| --- | --- | --- | --- |
| CC(C)(Oc1cccc(C(=O)c2cccc(C(F)(F)F)c2)c1)C(=O)O [Example 3] | 300 mg/kg | 43% | – |
| CC(Oc1cccc(C(=O)c2cccc(C(F)(F)F)c2)c1)C(=O)O (stereo not drawn) [Example 7] | 350 mg/kg | 61% | – |
| O=C(OCC(O)CO)c1ccccc1Nc1ccnc2cc(Cl)ccc12 (stereo not drawn) [Glaphenine, 2,3-dihdroxypropyl N-(7-chloro-4-quinolyl)-anthranilate, reference compound] | – | – | ED50 [3]: 25 mg/kg; kidney troubles [4]: induces kidney troubles |
| CC(C)(Oc1cccc(C(=O)c2ccccc2)c1)C(=O)O [Example 1, 2-(3-benzoyl)-phenoxy-2-methylpropionic acid] | 350 mg/kg | 95% | ED50 [3]: 35 mg/kg; tolerance of the product ([5]; double blind): excellent; activity good, cases ([5]; double blind, patients who had received the active compound): 80%; relief of symptoms ([5]; patients who had received the active compound): the symptoms had been relieved; kidney troubles [4]: without kidney troubles; LD50 [6]: 350 mg/kg; KD0 rat i.p. ([7]; i.p.): 540 mg/kg; LD0 rat per os ([7]; per os): higher than 1600 mg/kg |
| Cc1ccc(C(=O)c2cccc(OC(C)(C)C(=O)O)c2)cc1 [Example 4] | 400 mg/kg | 66% | – |
| CC(Oc1cccc(C(=O)c2ccc(Cl)cc2Cl)c1)C(=O)O (stereo not drawn) [Example 8] | 800 mg/kg | 100% | – |
| Cc1ccccc1C(=O)c1cccc(OC(C)(C)C(=O)O)c1 [Example 11] | 600 mg/kg | 70% | – |
| CC(Oc1cccc(C(=O)c2ccccc2)c1)C(=O)O (stereo not drawn) [Example 6] | 770 mg/kg | 100% | – |
| O=C(O)COc1cccc(C(=O)c2ccc(Cl)cc2Cl)c1 [Example 9] | 350 mg/kg | 94% | – |
| Cc1ccc(C(=O)c2cccc(OC(C)C(=O)O)c2)cc1 (stereo not drawn) [Example 13] | 700 mg/kg | 98% | – |
| Cc1ccc(C(=O)c2cccc(OC(C)(C)C(=O)O)c2)c(C)c1 [Example 10] | 600 mg/kg | 69% | – |
| Cc1ccc(C(=O)c2cccc(OCC(=O)O)c2)cc1 [Example 12] | 450 mg/kg | 92% | – |
| Cc1ccc(C(=O)c2cccc(OC(C)(C)C(=O)O)c2)cc1C [Example 5] | 450 mg/kg | 100% | – |
| COc1ccc(C(=O)c2cccc(OC(C)(C)C(=O)O)c2)cc1 [Example 2] | 300 mg/kg | 97% | – |
